Common to all, as to format: in vivo
The test system of assay [1] is Japanese bulrush (Scirpus juncoides). In words: Test Example 4: paddy pot test, submerged application at 2.2 to 2.8 leaf stage. Conditions: for Growth inhibition rate (%) Observed: 2.2 to 2.8 leaf stage, 29 days after application. The source says: (§1) Growth inhibition rate (%)=0% (equivalent to the non-treated area) to 100% (complete kill)
Paddy field soil was put into a 1/1,700 are pot, and seeds of Japanese bulrush (Scirpus juncoides) were sown and left to stand under an irrigated condition with a water depth of 3.5 cm. When Japanese bulrush reached 2.2 to 2.8 leaf stage, a wettable powder of compound A2, a wettable powder of compound B1 and an emulsifiable concentrate of benfuresate were, respectively, diluted with water and applied under submerged condition so that the active ingredients became the prescribed amounts, respectively. The state of growth was visually observed 29 days after application and evaluated in the same manner as in the above Test Example 1.

The test system of assay [2] is barnyardgrass (Echinochloa oryzicola vasing). Nature of the assay: Test Example 1: paddy pot test, submerged application on the next day after sowing. Particulars: for Growth inhibition rate (%) Observed: next day after sowing, 21 days after application.
Description: (§2) When the herbicidal activity in a case where two active ingredients are combined, is larger than the simple sum of the respective herbicidal activities of the two active ingredients (the expected activity), it is called a synergistic effect. The activity expected by the combination of two active ingredients can be calculated as follows (Colby S. R., “Weed”, vol. 15, p. 20-22, 1967). E=α+β−(α×β÷100) where α: growth inhibition rate when treated with x (g/a) of herbicide X,
(§3) β: growth inhibition rate when treated with y (g/a) of herbicide Y,
(§4) E: growth inhibition rate expected when treated with x (g/a) of herbicide X and y (g/a) of herbicide Y.
(§5) Namely when the actual growth inhibition rate (observed value) is larger than the growth inhibition rate by the above calculation (expected value), the activity by the combination can be regarded as showing a synergistic effect.
Paddy field soil was put into a 1/1,700 are pot, and seeds of barnyardgrass (Echinochloa oryzicola vasing) were sown and left to stand under an irrigated condition with a water depth of 3.5 cm. On the next day after the sowing, a wettable powder of compound A2 diluted with water and a microemulsion of compound B1 as it was were, respectively, applied under submerged condition so that the active ingredients became the prescribed amounts, respectively The state of growth was visually observed 21 days after application and the growth inhibition rate (%) evaluated in accordance with the following evaluation standard (observed value) and the growth inhibition rate (%) calculated by the above-mentioned Colby method (expected value) are shown in Table 1.
as §1

Assay [3] has the same test system. Nature of the assay: Test Example 5: paddy pot test, submerged application at 2.4 to 3.2 leaf stage.
Description: as §1
Paddy field soil was put into a 1/10,000 are pot, and seeds of barnyardgrass (Echinochloa oryzicola vasing) were sown and left to stand under an irrigated condition with a water depth of 3.5 cm. When barnyardgrass reached 2.4 to 3.2 leaf stage, wettable powders of compound A2 compound B1 and azimsulfuron were, respectively, diluted with water and applied under submerged condition so that the active ingredients became the prescribed amounts, respectively. The state of growth was visually observed 29 days after application and evaluated in the same manner as in the above Test Example 1.

Assay [4] shares this test system. In words: Test Example 2: paddy pot test, submerged application at 2 leaf stage. Conditions: for Growth inhibition rate (%) Observed: 2 leaf stage, 18 days after application.
Description: as §2, §3, §4, §5, §1
Paddy field soil was put into a 1/10,000 are pot, and seeds of barnyardgrass (Echinochloa oryzicola vasing) were sown and left to stand under an irrigated condition with a water depth of 3.5 cm. When barnyardgrass reached 2 leaf stage, a wettable powder of compound A2 diluted with water and a microemulsion of compound B1 as it was were, respectively, applied under submerged condition so that the active ingredients became the prescribed amounts, respectively. The state of growth was visually observed 18 days after application and evaluated in the same manner as in the above Test Example 1.

For assay [5] the test system is unchanged. Nature of the assay: Test Example 3: paddy pot test, submerged application at 3 leaf stage. Particulars: 504 h, 21 days after application, read-out: Growth inhibition rate (%) Observed.
Description: as §2, §3, §4, §5, §1
Paddy field soil was put into a 1/10,000 are pot, and seeds of barnyardgrass (Echinochloa oryzicola vasing) were sown and left to stand under an irrigated condition with a water depth of 3.5 cm. […] The state of growth was visually observed 21 days after application and evaluated in the same manner as in the above Test Example 1.

The mark [6] stands for this setting: Schoenoplectiella juncoides, 696 h, read-out: Growth inhibition rate (%) Observed.
Where [7] appears, read: Echinochloa oryzicola, 504 h, read-out: Growth inhibition rate (%) Observed.
Where [8] appears, read: Echinochloa oryzicola, 432 h, read-out: Growth Inhibition rate (%) Observed.

By inhibition is commonly meant the drop in the measured response relative to a control, in per cent.

As to `COCC(=O)OC(c1ncccc1S(=O)(=O)NC(=O)Nc1nc(OC)cc(OC)n1)C(C)F` (stereo not drawn) [Compound A2, flucetosulfuron], the “Growth inhibition rate (%) Observed” value was 87% in assay [1] (0.22 g/a); 95% in assay [2] (0.1 g/a); 98% in assay [2] (0.2 g/a); 96% in assay [3] (0.11 g/a, 2.4 to 3.2 leaf stage, 29 days after application); 84% in assay [4] (0.05 g/a); 98% in assay [4] (0.10 g/a). In assay [4] (0.15 g/a), the “Growth inhibition rate (%) Observed” value is recorded as 99%.

In the case of `CCS(=O)(=O)Oc1ccc2c(c1)C(C)(C)CO2` [Benfuresate, benfuresate, reference compound], the “Growth inhibition rate (%) Observed” value in assay [1] (6 g/a) came to 90%; in assay [1] (9 g/a) it was 89%.

As to `CCOC(=O)C(Cl)Cc1cc(-n2nc(C)n(C(F)F)c2=O)c(F)cc1Cl` (stereo not drawn) [Compound B1, carfentrazone-ethyl], in assay [1] (setting [6]), the inhibition at 50 g/ha was 80%, the inhibition at 100 g/ha worked out at 100% and the inhibition at 150 g/ha came out at 99%. Besides, in assay [2] (setting [7]), the inhibition at 20 g/ha is 0% and the inhibition at 30 g/ha was found to be 0%. The inhibition at 37.5 g/ha in assay [3] (Echinochloa oryzicola, 696 h, read-out: Growth inhibition rate (%) Observed) turned out to be 5%. In assay [4] (setting [8]), the inhibition at 30 g/ha was 3%, the inhibition at 45 g/ha was 8%, the inhibition at 67.5 g/ha turned out to be 13% and the inhibition at 101.2 g/ha was 18%. The inhibition at 11.3 g/ha in assay [5] (0.113 g/a) is 0%. The inhibition at 22.5 g/ha in assay [5] (0.225 g/a) was found to be 0%.
